The values below come from patent publication US20240246964A1 (Arbutus Biopharma Corporation, priority 2021, published 2024).

Like-named read-outs stand apart in the source and are kept apart here.

A word on the IC50: it is the concentration that inhibits the measured activity by half. Lower therefore signals greater potency. Usually EC50 stands for the concentration that produces a half-maximal response. Read a low EC50 as an effect from little substance.

Assay [1] deals with PD-L1 His protein / PD-1 Fc protein (Homo sapiens (Human), UniProt Q9NZQ7). Nature of the assay: HTRF Assay (PD-1/PD-L1 interaction). The assay is classed as binding. A general note: Time-resolved FRET reads energy transfer from a long-lived donor to a nearby acceptor.
A further assay concerns the target human PD-L1 (Homo sapiens (Human), UniProt Q9NZQ7). Description: T cell activation luciferase reporter cell culture system (T Cell Activation Assay). The format is cell-based. In general terms: A reporter such as luciferase makes a cellular process visible.
Setting [2] is: luciferase reporter assay, PD-L1 aAPC/CHO-K1 cells with PD-1 effector Jurkat T cells.

Chain of PD-L1 His protein / PD-1 Fc protein (Q9NZQ7 19-238): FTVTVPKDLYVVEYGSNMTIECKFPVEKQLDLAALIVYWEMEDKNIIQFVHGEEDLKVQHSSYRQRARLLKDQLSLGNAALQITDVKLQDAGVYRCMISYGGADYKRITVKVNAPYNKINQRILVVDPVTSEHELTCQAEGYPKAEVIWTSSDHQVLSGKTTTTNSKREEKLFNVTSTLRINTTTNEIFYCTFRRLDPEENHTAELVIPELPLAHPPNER
Chain of human PD-L1 (Q9NZQ7 19-290): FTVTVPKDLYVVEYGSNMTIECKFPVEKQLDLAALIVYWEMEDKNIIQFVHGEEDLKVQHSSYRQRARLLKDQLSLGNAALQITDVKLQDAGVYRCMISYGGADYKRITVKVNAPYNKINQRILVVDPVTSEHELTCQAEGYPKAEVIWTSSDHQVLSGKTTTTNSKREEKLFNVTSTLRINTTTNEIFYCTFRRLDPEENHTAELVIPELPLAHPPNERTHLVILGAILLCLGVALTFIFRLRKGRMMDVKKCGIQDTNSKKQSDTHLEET

As to `COc1cc(-c2nccc(-c3cccc(-c4ccc(CNCCNC(C)=O)c(OC)n4)c3Cl)c2Cl)ccc1CNCCNC(C)=O`, the midpoint of inhibition in assay [1] (PD-L1 His 6 nM, PD-1 Fc 6 nM), the IC50, lay at 1.39 nM. The same compound returned an EC50 at human PD-L1 (setting [2]) of 70.2 nM.

Take `COc1cc(-c2nccc(-c3cccc(-c4ccc(CN(C)C5CCN(C(C)=O)CC5)c(OC)n4)c3Cl)c2Cl)ccc1CNC1CCN(C(C)=O)CC1`: the half-maximal inhibitory concentration (IC50) in assay [1] (PD-L1 His 6 nM, PD-1 Fc 6 nM) came out at 3.12 nM. The compound further came in with an EC50 on human PD-L1 (setting [2]) of 49.1 nM.

With “1-(6-((6-(2-Chloro-3-(3-chloro-2-(3-methoxy-4-((6-(2-methoxyacetyl)-2,6-diazaspiro[3.3]heptan-2-yl)methyl)phenyl)pyridin-4-yl)phenyl)-2-methoxypyridin-3-yl)methyl)-2,6-diazaspiro[3.3]heptan-2-yl)-2-methoxyethan-1-one [Example 594]”, the IC50 in assay [1] is 0.17 nM. Moreover, the EC50 at human PD-L1 turned out to be 33.7 nM.

Take “2-(4-(3-Chloro-4-(2-chloro-3-(5-methoxy-6-((7-oxo-2,6-diazaspiro[3.4]octan-2-yl)methyl)pyridin-3-yl)phenyl)pyridin-2-yl)-2-methoxybenzyl)-2,6-diazaspiro[3.4]octan-7-one [Example 566]”: in assay [1] (PD-L1 His 6 nM, PD-1 Fc 6 nM), the IC50 worked out at 0.93 nM. The EC50 at human PD-L1 (setting [2]) turned out to be 341 nM.

In assay [1] (PD-L1 His 6 nM, PD-1 Fc 6 nM), `COc1nc(-c2cccc(-c3ccnc(-c4ccc5c(c4)CCCC5NC[C@@H]4CCC(=O)N4)c3Cl)c2Cl)ccc1CNC[C@@H]1CCC(=O)N1` (mixture of isomers) [Compound 112, (5S)-5-((((6-(2-chloro-3-(3-chloro-2-(5-((((S)-5-oxopyrrolidin-2-yl)methyl)amino)-5,6,7,8-tetrahydronaphthalen-2-yl)pyridin-4-yl)phenyl)-2-methoxypyridin-3-yl)methyl)amino)methyl)pyrrolidin-2-one] showed an IC50 of 1 nM. This compound also came in with an EC50 at human PD-L1 (setting [2]) of 50.5 nM.

Regarding `COc1nc(-c2cccc(-c3ccnc(-c4ccc5c(c4)CCCC5NC[C@H](C)O)c3Cl)c2Cl)ccc1CNC[C@@H]1CCC(=O)N1` (mixture of isomers) [Compound 113, (5S)-5-((((6-(2-chloro-3-(3-chloro-2-(5-(((S)-2-hydroxypropyl)amino)-5,6,7,8-tetrahydronaphthalen-2-yl)pyridin-4-yl)phenyl)-2-methoxypyridin-3-yl)methyl)amino)methyl)pyrrolidin-2-one], the IC50 in assay [1] (PD-L1 His 6 nM, PD-1 Fc 6 nM) worked out at 0.7 nM. This compound gave a 50% effective concentration (EC50) on human PD-L1 (setting [2]) of 185 nM.

`COc1cc(-c2nccc(-c3ccnc(-c4ccc(CNC[C@@H]5CCC(=O)N5)c(OC)c4)c3Cl)c2Cl)ccc1CNC[C@@H]1CCC(=O)N1` [Compound 4, (5S,5′S)-5,5′-(((((3,3′-dichloro-[4,4′-bipyridine]-2,2′-diyl)bis(2-methoxy-4,1-phenylene))bis(methylene))bis(azanediyl))bis(methylene))bis(pyrrolidin-2-one)]: the IC50 in assay [1] (PD-L1 His 6 nM, PD-1 Fc 6 nM) amounted to 8.3 nM. At human PD-L1 (setting [2]), this compound registered an EC50 of 96.3 nM.

On to `CN1CCNCc2ccc(-c3nccc(-c4cccc(-c5ccc6c(CNC[C@@H]7CCC(=O)N7)cn(C)c6n5)c4Cl)c3Cl)cc21` [Compound 9, (S)-5-((((6-(2-chloro-3-(3-chloro-2-(1-methyl-2,3,4,5-tetrahydro-1H-benzo[e][1,4]diazepin-8-yl)pyridin-4-yl)phenyl)-1-methyl-1H-pyrrolo[2,3-b]pyridin-3-yl)methyl)amino)methyl)pyrrolidin-2-one], for which the IC50 in assay [1] (PD-L1 His 6 nM, PD-1 Fc 6 nM) stood at 15.5 nM. This compound also yielded an EC50 on human PD-L1 (setting [2]) of 212 nM.

Consider `COc1cc(-c2nccc(-c3ccnc(-c4cc(F)c(CNC[C@@H]5CCC(=O)N5)c(OC)c4)c3Cl)c2Cl)cc(F)c1CNC[C@@H]1CCC(=O)N1` [Compound 12, (5S,5′S)-5,5′-(((((3,3′-dichloro-[4,4′-bipyridine]-2,2′-diyl)bis(2-fluoro-6-methoxy-4,1-phenylene))bis(methylene))bis(azanediyl))bis(methylene))bis(pyrrolidin-2-one)], for which, in assay [1] (PD-L1 His 6 nM, PD-1 Fc 6 nM), the IC50 was 0.1 nM. For the same compound, it took 67.1 nM to reach a half-maximal effect on human PD-L1 (setting [2]) (EC50).

The compound `COc1cc(-c2nccc(-c3ccnc(-c4ccc5c(CNC[C@@H]6CCC(=O)N6)cn(C)c5c4)c3Cl)c2Cl)ccc1CNC[C@@H]1CCC(=O)N1` [Compound 14, (S)-5-(((4-(3,3′-dichloro-2′-(1-methyl-3-(((((S)-5-oxopyrrolidin-2-yl)methyl)amino)methyl)-1H-indol-6-yl)-[4,4′-bipyridin]-2-yl)-2-methoxybenzyl)amino)methyl)pyrrolidin-2-one] returned a half-inhibitory concentration (IC50) in assay [1] (PD-L1 His 6 nM, PD-1 Fc 6 nM) of 0.6 nM. Besides, at human PD-L1 (setting [2]), the EC50 turned out to be 165 nM.

Take `Cn1cc(CNC[C@@H]2CCC(=O)N2)c2ccc(-c3nccc(-c4ccnc(-c5ccc6c(CNC[C@@H]7CCC(=O)N7)cn(C)c6c5)c4Cl)c3Cl)cc21` [Compound 15, (5S,5′S)-5,5′-(((((3,3′-dichloro-[4,4′-bipyridine]-2,2′-diyl)bis(1-methyl-1H-indole-6,3-diyl))bis(methylene))bis(azanediyl))bis(methylene))bis(pyrrolidin-2-one)]: in assay [1] (PD-L1 His 6 nM, PD-1 Fc 6 nM), the 50% inhibitory concentration (IC50) turned out to be 108 nM. The response at human PD-L1 (setting [2]) was half-maximal at 10000 nM (EC50).

`COc1cc(-c2nccc(-c3ccnc(-c4cnc5c(CNC[C@@H]6CCC(=O)N6)cn(C)c5c4)c3Cl)c2Cl)ccc1CNC[C@@H]1CCC(=O)N1` [Compound 16, (S)-5-(((4-(3,3′-dichloro-2′-(1-methyl-3-(((((S)-5-oxopyrrolidin-2-yl)methyl)amino)methyl)-1H-pyrrolo[3,2-b]pyridin-6-yl)-[4,4′-bipyridin]-2-yl)-2-methoxybenzyl)amino)methyl)pyrrolidin-2-one] showed an IC50 in assay [1] (PD-L1 His 6 nM, PD-1 Fc 6 nM) of 1 nM. On human PD-L1 (setting [2]), this compound registered an EC50 of 355 nM.

For the compound `COc1cc(-c2nccc(-c3cccc(-c4ccc5c(CNC[C@@H]6CCC(=O)N6)cn(C)c5n4)c3Cl)c2Cl)ccc1CNC[C@@H]1CCC(=O)N1` [Compound 17, (S)-5-((((6-(2-chloro-3-(3-chloro-2-(3-methoxy-4-(((((S)-5-oxopyrrolidin-2-yl)methyl)amino)methyl)phenyl)pyridin-4-yl)phenyl)-1-methyl-1H-pyrrolo[2,3-b]pyridin-3-yl)methyl)amino)methyl)pyrrolidin-2-one], the IC50 in assay [1] (PD-L1 His 6 nM, PD-1 Fc 6 nM) worked out at 2.4 nM. At human PD-L1 (setting [2]), this compound gave an EC50 of 29.2 nM.

In assay [1] (PD-L1 His 6 nM, PD-1 Fc 6 nM), `COc1cc(-c2nccc(-c3cccc(-c4cc5c(c(OC)c4)CN(C[C@@H]4CCC(=O)N4)CC5)c3Cl)c2Cl)ccc1CNC[C@@H]1CCC(=O)N1` [Compound 18, (S)-5-((6-(2-chloro-3-(3-chloro-2-(3-methoxy-4-(((((S)-5-oxopyrrolidin-2-yl)methyl)amino)methyl)phenyl)pyridin-4-yl)phenyl)-8-methoxy-3,4-dihydroisoquinolin-2(1H)-yl)methyl)pyrrolidin-2-one] came in with an IC50 of 39.8 nM. The compound further yielded a concentration giving a half-maximal response (EC50) on human PD-L1 (setting [2]) of 75.6 nM.

Take `COc1nc(-c2cccc(-c3ccnc(-c4cnc5c(CNC6CCN(C(C)=O)CC6)cn(C)c5c4)c3Cl)c2Cl)ccc1CNC[C@@H]1CCC(=O)N1` [Compound 21, (S)-5-((((6-(3-(2-(3-(((1-acetylpiperidin-4-yl)amino)methyl)-1-methyl-1H-pyrrolo[3,2-b]pyridin-6-yl)-3-chloropyridin-4-yl)-2-chlorophenyl)-2-methoxypyridin-3-yl)methyl)amino)methyl)pyrrolidin-2-one]: in assay [1] (PD-L1 His 6 nM, PD-1 Fc 6 nM), the IC50 came out at 0.1 nM. In addition, at human PD-L1 (setting [2]), the response was half-maximal at 75.8 nM (EC50).

Take `COc1nc(-c2cccc(-c3ccnc(-c4cnc5c(CNC[C@@H]6CCO6)cn(C)c5c4)c3Cl)c2Cl)ccc1CNC[C@@H]1CCC(=O)N1` [Compound 22, (S)-5-((((6-(2-chloro-3-(3-chloro-2-(1-methyl-3-(((((S)-oxetan-2-yl)methyl)amino)methyl)-1H-pyrrolo[3,2-b]pyridin-6-yl)pyridin-4-yl)phenyl)-2-methoxypyridin-3-yl)methyl)amino)methyl)pyrrolidin-2-one]: in assay [1] (PD-L1 His 6 nM, PD-1 Fc 6 nM), the IC50 is 0.3 nM. In addition, it took 135 nM to reach a half-maximal effect at human PD-L1 (setting [2]) (EC50).

`COc1cc(-c2nccc(-c3cccc(-c4ccc(CNC[C@@H]5CCC(=O)N5)c(OC)n4)c3Cl)c2Cl)cnc1CNC[C@@H]1CCC(=O)N1` [Compound 23, (S)-5-((((6-(2-chloro-3-(3-chloro-5′-methoxy-6′-(((((S)-5-oxopyrrolidin-2-yl)methyl)amino)methyl)-[2,3′-bipyridin]-4-yl)phenyl)-2-methoxypyridin-3-yl)methyl)amino)methyl)pyrrolidin-2-one]: half-maximal inhibition in assay [1] (PD-L1 His 6 nM, PD-1 Fc 6 nM) (IC50) required 0.1 nM. This compound also showed an EC50 on human PD-L1 (setting [2]) of 36.3 nM.

In turn, `COc1nc(-c2ccnc(-c3cccc4c3CC[C@@H]4Oc3nc(OC)c(CNC[C@@H]4CCC(=O)N4)cc3C(F)(F)F)c2Cl)ccc1CNC1CCN(C(C)=O)CC1` [Example 544, (S)-5-((((6-(((S)-4-(5-(((1-acetylpiperidin-4-yl)amino)methyl)-3′-chloro-6-methoxy-[2,4′-bipyridin]-2′-yl)-2,3-dihydro-1H-inden-1-yl)oxy)-2-methoxy-5-(trifluoromethyl)pyridin-3-yl)methyl)amino)methyl)pyrrolidin-2-one] registered an IC50 in assay [1] (PD-L1 His 6 nM, PD-1 Fc 6 nM) of 0.8 nM.

Regarding `CNCc1ccc(C(=O)Nc2cccc(-c3ccnc(-c4ccc(CNC[C@@H]5CCC(=O)N5)c(OC)c4)c3Cl)c2Cl)nc1` [Example 751, (S)—N-(2-Chloro-3-(3-chloro-2-(3-methoxy-4-((((5-oxopyrrolidin-2-yl)methyl)amino)methyl)phenyl)pyridin-4-yl)phenyl)-5-((methylamino)methyl)picolinamide], the EC50 on human PD-L1 (setting [2]) is 5.68 nM.

`COc1cc(-c2nccc(-c3cccc(NC(=O)c4ccc(C(=O)O)cn4)c3Cl)c2Cl)ccc1CNC[C@@H]1CCC(=O)N1` [Example 752, (S)-6-((2-Chloro-3-(3-chloro-2-(3-methoxy-4-((((5-oxopyrrolidin-2-yl)methyl)amino)methyl)phenyl)pyridin-4-yl)phenyl)carbamoyl)nicotinic acid] showed an EC50 at human PD-L1 (setting [2]) of 1030 nM.

As for `COc1cc(-c2nccc(-c3cccc(NC(=O)c4ccc(CNCCO)cn4)c3Cl)c2Cl)ccc1CN1CC2(CNC(=O)C2)C1` [Example 754, N-(2-Chloro-3-(3-chloro-2-(3-methoxy-4-((7-oxo-2,6-diazaspiro[3.4]octan-2-yl)methyl)phenyl)pyridin-4-yl)phenyl)-5-(((2-hydroxyethyl)amino)methyl)picolinamide], the EC50 on human PD-L1 (setting [2]) stood at 9.1 nM.
